Results on five compounds are retold here after patent US20090131493A1, “SUBSTITUTED BENZIMIDAZOLES FOR TREATMENT OF HISTOMONIASIS” (BAYER HEALTHCARE AG, priority 2005, published 2009).

For one series, the system named is Heterakis gallinarum. The conditions noted are these: treatment for 14 days after the time of infection; directed against Heterakis gallinarum, not H. meleagridis; cited from earlier work.
Another series relates to histomonas. The conditions noted are these: cited from earlier work.
The subject of series [1] is Histomonas meleagridis. The series can be described thus: Test 1: cage trial, turkey chicks intracloacally infected with Histomonas meleagridis, weight gain. The format is in vivo. Conditions: 1 day before to 13 days after infection, uninfected/untreated group 4 set at 100%. The text has this: (§1) Young, susceptible turkey cock chicks were kept in cages and underwent intracloacal infection in a conventional way at an age of 2 weeks with about 5 log 10 infectious Histomonas meleagridis microorganisms. With the test groups which had been treated with the test compounds, two control groups were kept for comparison purposes (infected/untreated and uninfected/untreated). The test groups consisted of 6 to 10 turkeys. The test compounds, either the compound of the formula (I-1) or (I-2), were administered to the treated test groups 1 day before the infection and 13 days thereafter, with the feed. At the end of the trial, the animals were sacrificed and examined for lesions typical of histomoniasis (“blackhead disease”).

The test system of series [2] is Histomonas meleagridis. The series can be described thus: Test 2: cage trial, turkey chicks intracloacally infected with Histomonas meleagridis, liver and caecum lesions. The format is in vivo. Conditions: for Caecum lesions / Liver lesions: scale 0 (no lesions) to 4 (most severe lesions).
Source text: as §1

The conditions of series [3]: turkey cock; cited from earlier work.

The structures appear in SMILES notation.

Regarding `CCCSc1ccc2nc(NC(=O)OC)[nH]c2c1` [albendazole], the activity in vivo result in the series with Heterakis gallinarum is recorded as “prophylactic activity”. Also, the “activity on histomonas in vitro” value in the series on histomonas is recorded as “inadequate activity”.
On to `CCN(Cn1c(C(F)(F)F)nc2c(Br)cc3c(c21)OC(F)(F)C(F)(F)O3)C(=O)OC` [compound (I-1)], for which, in the series on Histomonas meleagridis [1] (5 ppm in the feed), the Weight gain worked out at 61%. In the series on Histomonas meleagridis [2] (5 ppm in the feed), this compound returned a Caecum lesions of 3.5 and a Liver lesions of 0.8. In the series with Histomonas meleagridis [2] (15 ppm in the feed), the Caecum lesions is reported as 3 and the Liver lesions is reported as 0.
In the series on Histomonas meleagridis [1] (10 ppm in the feed), `Cc1oc(=O)oc1Cn1c(C(F)(F)F)nc2c(Cl)cc3c(c21)OC(F)(F)C(F)(F)O3` [compound (I-2)] showed a Weight gain of 35%. Also, the Caecum lesions was 2.1 with Histomonas meleagridis [2] (10 ppm in the feed) and 0.8 in the series on Histomonas meleagridis [2] (30 ppm in the feed). Moreover, the Liver lesions in the series with Histomonas meleagridis [2] (10 ppm in the feed) and in the series on Histomonas meleagridis [2] (30 ppm in the feed) was 0 in each case. In the series with Histomonas meleagridis [2] (Test 2, summary in text), the “effect on caecum lesions (in words)” value was “reduced the caecum lesions”.
`COC(=O)Nc1nc2ccc(Sc3ccccc3)cc2[nH]1` [fenbendazole]: the activity in vivo entry in the series with Heterakis gallinarum is listed as “prophylactic activity”. Also, the “activity on histomonas in vitro” value with histomonas was “inadequate activity”.
`O=[N+]([O-])c1cc([As](=O)(O)O)ccc1O` [roxarsone]: the “effect of doubling the dosage” value in series [3] is recorded as “impaired motor functions”.
